Measurements as given in patent US6310177A, “Compounds and methods for modulating tissue permeability” (Adherex Technologies, Inc., priority 2000, dated 2001).
Where a SMILES comes first, the peptide text is derived from it. Bridges are numbered along the chain shown (N, C = ends).

Key:
[1] = test system: endothelial cell permeability in vivo; test: Miles assay for vascular permeability; settings: rat, 100 μl subdermal injection of 100 μg/ml peptide in PBS, Evans blue i.v. 15 min later; for dye extracted from excised injection sites (optical density of dimethylformamide extracts at 620 nm): 24 h extraction, FIG. 6 and FIG. 8; for accumulation of Evans blue at the injection sites (visual): read 15 min after dye, FIG. 5
Experimental: The ability of an agent to modulate cell adhesion may generally be evaluated in vivo by assessing the effect on vascular permeability utilizing the Miles assay (McClure et al., J. Pharmacological& Toxicological Methods 32:49-52, 1994). Briefly, a candidate modulating agent may be dissolved in phosphate buffered saline (PBS) at a concentration of 100 μg/ml. Adult rats may be given 100 μl subdermal injections of each peptide solution into their shaved backs, followed 15 minutes later by a single 250 μl injection of 1% Evans blue dissolved in PBS into their tail veins. The subdermal injection sites may be visually monitored for the appearance of blue dye. Once the dye appears (about 15 minutes after injection), each subdermal injection site may be excised, weighed, and placed in 1 ml dimethylformamide for 24 hours to extract the dye. The optical density of the dye extracts may then be determined at 620 nm. In general, the injection of 0.1 ml of modulating agent (at a concentration of 0.1 mg/ml) into the backs of rats causes an increase of dye accumulation at the injection sites of at least 50%, as compared to dye accumulation at sites into which PBS has been injected.
This Example illustrates a vasopermeability assay for evaluating the effects of occludin-modulating agents on endothelial cell permeability in vivo.
The ability of cyclic and linear peptides to increase vascular permeability was assessed utilizing the Miles assay (McClure et al., J. Pharmacological& Toxicological Meth. 32:49-521994). The peptides were dissolved in phosphate buffered saline (PBS) at a concentration of 100 μg/ml. Adult rats were given 100 μl subdermal injections of each peptide solution into their shaved backs, followed 15 minutes later by a single 250 μl injection of 1% Evans blue dissolved in PBS into their tail veins. The subdermal injection sites were visually monitored for the appearance of blue dye. Once the dye appeared (15 minutes after injection), each subdermal injection site was excised, weighed, and placed in 1 ml dimethylformamide for 24 hours to extract the dye. The optical density of the dye extracts was determined at 620 nm. The effects of injecting either phosphate buffered saline, phosphate buffered saline containing acetyl-QYLYHYCVVD-NH2 (SEQ ID NO:2) H-QYLYHYCVVD-NH2 (SEQ ID NO:2), or H-QYLYHYCVVD-OH (SEQ ID NO:2) into sites along the shaved back of a rat on the accumulation of Evans blue at the injection sites is shown in FIG. 5.

[2] = test system: Human aortic endothelial cells (HAEC); test: Endothelial cell adhesion assay with occludin and VE-cadherin immunolocalization; type: cell-based; settings: 1 hour
Source text: The effect of a modulating agent on endothelial cell adhesion may generally be evaluated using immunolocalization techniques. Human aortic endothelial cells (HAEC) may be cultured on fibronectin-coated coverslips (fibronectinmay be obtained from Sigma, St. Louis, Mo.) according to the procedures of Jaffe et al., J. Clin. Invest. 52:2745-2756, 1973. Briefly, human endothelial cells may be maintained in EGM (endothelial cell growth medium; Clonetics, San Diego, Calif.) and used for experiments at passage 4. Confluent cultures of HAEC may be exposed to either a candidate modulating agent (final concentration 100 μg/ml EGM), or EGM alone for 1 hour. The cells are then be fixed for 30 minutes at 4° C. in 95% ethanol, followed by fixation in acetone for 1 minute at 4° C. (Furuse et al., J. Cell Biol. 123:1777-1788, 1993). After fixation, the cells may be probed with either mouse anti-VE-cadherin antibodies (Hemeris, Sassenage, France; diluted 1:250 in 0.1% dried skim milk powder dissolved in PBS), or rabbit anti-occludin antibodies (Zymed, South San Francisco, Calif.; diluted 1:300 in 0.1% dried skim milk powder dissolved in PBS) for 1 hour at 37° C. The cells may then be washed with 0.1% dried skim milk powder dissolved in PBS (three washes, 5 minutes/wash), and probed with secondary antibodies (donkey anti-mouse Cy3, or donkey anti-rabbit Cy5 diluted 1:250 in 0.1% dried skim milk powder dissolved in PBS; Jackson Immunoresearch Laboratories Inc., Westgrove, Pa.) for 1 hour at 37° C. The cells may then be washed again with in 0.1% dried skim milk powder dissolved in PBS and mounted in a solution composed of 50% glycerol and 50% PBS to which phenylenediamine (Sigma, St. Louis, Mo.) has been added to a final concentration of 1 mg/ml. The sample may then be analyzed using a Bio-Rad MRC 1000 confocal microscope with Laser Sharp software version 2.1T (Bio-Rad, Hercules, Calif.). In general, 0.1 mg/ml of modulating agent results in the appearance of intercellular gaps within the monolayer cultures and a decrease of at least 50% in the surface expression of occludin and VE-cadherin, as compared to monolayer cultures that were not exposed to the modulating agent.
This Example illustrates an endothelial cell adhesion assay for evaluating the effects of occludin-modulating agents on endothelial cell adhesion.
Human aortic endothelial cells (HAEC) were cultured on fibronectin (Sigma, St. Louis, Mo.) according to the procedures of Jaffe et al., J. Clin. Invest. 52:2745-2756, 1973. Cells were maintained in EGM (endothelial cell growth medium; Clonetics, San Diego, Calif.) and used for experiments at passage 4.
HAEC were cultured on fibronectin-coated coverslips. Confluent cultures of HAEC were exposed to linear peptides (final concentration 100 μg/ml EGM), or EGM alone for 1 hour. […]

[3] = HAEC, 100 μg/ml peptide, immunofluorescence, vs untreated cells

| Molecule | dye extracted from excised injection sites (optical density of dimethylformamide extracts at 620 nm) [1] | accumulation of Evans blue at the injection sites (visual) [1] | surface expression of VE-cadherin [2, 3] | surface expression of occludin [2, 3] | endothelial cell adhesion (retraction of cells, gaps between cells) ([2]; confluent HAEC monolayers, 100 μg/ml peptide in EGM, vs untreated cells, FIG. 4) | formation of cobblestone-like monolayers ([2]; confluent HAEC, 100 μg/ml peptide, FIG. 4B) |
| --- | --- | --- | --- | --- | --- | --- |
| CC(C)C[C@@H]1NC(=O)[C@@H](N)CSSC[C@@H](C(=O)O)NC(=O)[C@H](Cc2ccc(O)cc2)NC(=O)[C@H](Cc2c[nH]cn2)NC(=O)[C@H](Cc2ccc(O)cc2)NC1=O [H-CLYHYC-OH] (H-CLYHYC-OH; disulfide 1-6) | more dye was extracted |  |  |  |  |  |
| CC(=O)N[C@H]1CSSC[C@@H](C(N)=O)NC(=O)[C@H](Cc2ccc(O)cc2)NC(=O)[C@H](Cc2c[nH]cn2)NC(=O)[C@H](Cc2ccc(O)cc2)NC(=O)[C@H](CC(C)C)NC1=O [acetyl-CLYHYC-NH2] (Ac-CLYHYC-NH2; disulfide 1-6) | more dye was extracted from the sites injected with H-CLYHYC-OH |  |  |  |  |  |
| Ac-QYLYHYCVVD-NH2 [acetyl-QYLYHYCVVD-NH2] | more dye was extracted from the sites injected with H-QYLYHYCVVD-OH | more blue dye has accumulated at the sites where the peptide H-QYLYHYCVVD-OH |  |  |  |  |
| H-QYLYHYCVVD-NH2 [H-QYLYHYCVVD-NH2] | more dye was extracted from the sites injected with H-QYLYHYCVVD-OH | more blue dye has accumulated at the sites where the peptide H-QYLYHYCVVD-OH |  |  |  |  |
| H-QYLYHYCVVD-OH [H-QYLYHYCVVD-OH] | more dye was extracted | more blue dye has accumulated | greatly reduced | greatly reduced | adhesion is decreased between the cells | do not form cobblestone-like monolayers |
